Laboratory results taken from ChEMBL document CHEMBL1201862, “PubChem BioAssay data set” (2004).
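Protocol summary: plate cells (96-well), add compound at 5 concentrations, incubate 48 h, interpolate endpoints linearly. Here, GI50 denotes the concentration required for 50% inhibition of growth.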 The source made the active and inactive calls. Cut-off read from the data, not from the text of the source: active = GI50 up to about 1.1 µM and inactive = higher.

What was measured:
Test in all cases: inhibition of tumour cell growth, NCI panel, 48 h
786-0 = tested on: 786-0
ACHN = tested on: ACHN
CCRF-CEM = tested on: CCRF-CEM
COLO 205 = tested on: COLO 205
HCT-15 = tested on: HCT-15
Hs-578T = tested on: Hs-578T
IGROV-1 = tested on: IGROV-1
M14 = tested on: M14
MDA-MB-435 = tested on: MDA-MB-435
NCI-H226 = tested on: NCI-H226
NCI-H522 = tested on: NCI-H522
OVCAR-4 = tested on: OVCAR-4
OVCAR-5 = tested on: OVCAR-5
SF-268 = tested on: SF-268
SK-MEL-28 = tested on: SK-MEL-28
SNB-75 = tested on: SNB-75
U-251 = tested on: U-251
HL-60 = tested on: HL-60
SNB-19 = tested on: SNB-19
PC-3 = tested on: PC-3

Compound	GI50 (786-0)	GI50 (ACHN)	GI50 (CCRF-CEM)	GI50 (COLO 205)	GI50 (HCT-15) [µM]	GI50 (Hs-578T)	GI50 (IGROV-1)	GI50 (M14)	GI50 (MDA-MB-435)	GI50 (NCI-H226)	GI50 (NCI-H522)	GI50 (OVCAR-4)	GI50 (OVCAR-5)	GI50 (SF-268)	GI50 (SK-MEL-28)	GI50 (SNB-75)	GI50 (U-251)	GI50 (HL-60)	GI50 (SNB-19)	GI50 (PC-3)
O=C(CC(C(=O)c1cccs1)c1ccsc1)c1ccccc1 (stereo not given)	> 100 µM (inactive)	69.5 µM (inactive)	> 100 µM (inactive)	> 100 µM (inactive)	48.1	> 100 µM (inactive)	> 100 µM (inactive)	34.9 µM (inactive)	31.4 µM (inactive)	> 100 µM (inactive)	61.7 µM (inactive)	24 µM (inactive)	> 100 µM (inactive)	> 100 µM (inactive)	> 100 µM (inactive)	> 100 µM (inactive)	> 100 µM (inactive)	–	–	–
CN(C)/C(=N/C(=O)Nc1ccccc1)SCc1ccccc1	> 100 µM (inactive)	> 100 µM (inactive)	> 100 µM (inactive)	> 100 µM (inactive)	> 100	–	> 100 µM (inactive)	> 100 µM (inactive)	–	> 100 µM (inactive)	91.2 µM (inactive)	> 100 µM (inactive)	> 100 µM (inactive)	> 100 µM (inactive)	> 100 µM (inactive)	> 100 µM (inactive)	> 100 µM (inactive)	> 100 µM (inactive)	> 100 µM (inactive)	–
Nc1nc2c(c(=O)[nH]1)C(c1ccccc1)CC(=O)N2 (stereo not given)	> 100 µM (inactive)	> 100 µM (inactive)	–	> 100 µM (inactive)	> 100	> 100 µM (inactive)	> 100 µM (inactive)	> 100 µM (inactive)	> 100 µM (inactive)	> 100 µM (inactive)	–	> 100 µM (inactive)	> 100 µM (inactive)	> 100 µM (inactive)	> 100 µM (inactive)	> 100 µM (inactive)	> 100 µM (inactive)	–	> 100 µM (inactive)	> 100 µM (inactive)
COc1ccc2c(c1)CC1(O)COc3cc(OC)ccc3C1O2 (stereo not given)	> 100 µM (inactive)	> 100 µM (inactive)	> 100 µM (inactive)	> 100 µM (inactive)	96.2	–	> 100 µM (inactive)	> 100 µM (inactive)	> 100 µM (inactive)	> 100 µM (inactive)	> 100 µM (inactive)	63.7 µM (inactive)	> 100 µM (inactive)	> 100 µM (inactive)	–	–	91.6 µM (inactive)	–	–	> 100 µM (inactive)
CCN(CC)c1c(C)nnn1C1OC(COC(C)=O)C(OC(C)=O)C(OC(C)=O)C1OC(C)=O (stereo not given)	> 100 µM (inactive)	> 100 µM (inactive)	> 100 µM (inactive)	> 100 µM (inactive)	38.6	–	> 100 µM (inactive)	> 100 µM (inactive)	–	> 100 µM (inactive)	> 100 µM (inactive)	> 100 µM (inactive)	> 100 µM (inactive)	> 100 µM (inactive)	> 100 µM (inactive)	> 100 µM (inactive)	> 100 µM (inactive)	> 100 µM (inactive)	> 100 µM (inactive)	–
COc1ccc(CCNC(=O)c2ccccc2C2c3ccc(OCc4ccccc4)cc3Oc3cc(OCc4ccccc4)ccc32)cc1OC	> 100 µM (inactive)	> 100 µM (inactive)	–	> 100 µM (inactive)	> 100	–	> 100 µM (inactive)	> 100 µM (inactive)	> 100 µM (inactive)	> 100 µM (inactive)	> 100 µM (inactive)	> 100 µM (inactive)	> 100 µM (inactive)	> 100 µM (inactive)	> 100 µM (inactive)	–	> 100 µM (inactive)	0.668 µM (active)	> 100 µM (inactive)	> 100 µM (inactive)
Cc1cccc(/N=N/C(=O)NNc2cccc(C)c2C)c1C	35.2 µM (inactive)	41.7 µM (inactive)	> 10 µM (inactive)	–	38.5	–	23.9 µM (inactive)	41.8 µM (inactive)	26.1 µM (inactive)	38.8 µM (inactive)	24.7 µM (inactive)	30.8 µM (inactive)	37 µM (inactive)	34 µM (inactive)	43.6 µM (inactive)	54.3 µM (inactive)	35.8 µM (inactive)	24.5 µM (inactive)	45.8 µM (inactive)	31.5 µM (inactive)
CNC(=O)c1nc[nH]c1/N=N/N(C)N	> 100 µM (inactive)	–	> 10 µM (inactive)	> 100 µM (inactive)	> 100	> 100 µM (inactive)	> 100 µM (inactive)	> 100 µM (inactive)	> 100 µM (inactive)	> 100 µM (inactive)	> 100 µM (inactive)	> 100 µM (inactive)	> 100 µM (inactive)	> 100 µM (inactive)	> 100 µM (inactive)	80.9 µM (inactive)	> 100 µM (inactive)	–	–	> 100 µM (inactive)
O=C1OC(c2ccccc2)=N/C1=C/N1CCCC1C(=O)O (stereo not given)	> 100 µM (inactive)	> 100 µM (inactive)	> 100 µM (inactive)	> 100 µM (inactive)	> 100	–	> 100 µM (inactive)	> 100 µM (inactive)	–	> 100 µM (inactive)	> 100 µM (inactive)	> 100 µM (inactive)	> 100 µM (inactive)	> 100 µM (inactive)	> 100 µM (inactive)	> 100 µM (inactive)	> 100 µM (inactive)	> 100 µM (inactive)	> 100 µM (inactive)	–
CC(=O)Oc1ccc(OC(Oc2ccccc2)c2ccccc2)cc1 (stereo not given)	23.8 µM (inactive)	25.2 µM (inactive)	27.5 µM (inactive)	40.7 µM (inactive)	33.9	–	32.6 µM (inactive)	17.5 µM (inactive)	32.4 µM (inactive)	27 µM (inactive)	42.6 µM (inactive)	33.7 µM (inactive)	27.7 µM (inactive)	33 µM (inactive)	26.2 µM (inactive)	10.4 µM (inactive)	17.5 µM (inactive)	12.6 µM (inactive)	27.3 µM (inactive)	30 µM (inactive)
CCOC(=O)C(CNc1ccc(O)cc1)NC(=O)c1ccccc1 (stereo not given)	64.3 µM (inactive)	54.8 µM (inactive)	32.3 µM (inactive)	> 100 µM (inactive)	> 100	–	> 100 µM (inactive)	> 66.4 µM (inactive)	–	> 100 µM (inactive)	75.3 µM (inactive)	> 66.2 µM (inactive)	> 100 µM (inactive)	> 100 µM (inactive)	> 100 µM (inactive)	> 100 µM (inactive)	> 100 µM (inactive)	25.6 µM (inactive)	> 100 µM (inactive)	–
NNC(=O)C1CCC(=O)N1S(=O)(=O)c1ccccc1 (stereo not given)	> 100 µM (inactive)	> 100 µM (inactive)	> 100 µM (inactive)	> 100 µM (inactive)	> 100	–	> 100 µM (inactive)	> 100 µM (inactive)	–	> 100 µM (inactive)	> 100 µM (inactive)	> 100 µM (inactive)	> 100 µM (inactive)	> 100 µM (inactive)	> 100 µM (inactive)	> 100 µM (inactive)	> 100 µM (inactive)	> 100 µM (inactive)	> 100 µM (inactive)	–
O=c1oc2ccc(Cl)cc2cc1-c1cn2ccccc2n1	3.24 µM (inactive)	2.64 µM (inactive)	> 81.3 µM (inactive)	> 100 µM (inactive)	> 100	7.83 µM (inactive)	29.2 µM (inactive)	> 66.7 µM (inactive)	> 100 µM (inactive)	20.9 µM (inactive)	36.6 µM (inactive)	13.7 µM (inactive)	57.5 µM (inactive)	> 39.8 µM (inactive)	96.8 µM (inactive)	15.3 µM (inactive)	3.93 µM (inactive)	–	–	> 72.9 µM (inactive)
O=C(O)C1(C(=O)O)CC1(C(=O)O)C(=O)O	> 100 µM (inactive)	> 100 µM (inactive)	> 100 µM (inactive)	> 100 µM (inactive)	> 100	> 100 µM (inactive)	> 100 µM (inactive)	> 100 µM (inactive)	–	> 100 µM (inactive)	> 100 µM (inactive)	> 100 µM (inactive)	> 100 µM (inactive)	> 100 µM (inactive)	> 100 µM (inactive)	> 100 µM (inactive)	> 100 µM (inactive)	> 100 µM (inactive)	> 100 µM (inactive)	> 100 µM (inactive)
NCCCNOCCCN	> 100 µM (inactive)	> 100 µM (inactive)	–	> 100 µM (inactive)	> 100	–	–	> 100 µM (inactive)	> 100 µM (inactive)	–	> 100 µM (inactive)	> 100 µM (inactive)	> 100 µM (inactive)	> 100 µM (inactive)	> 100 µM (inactive)	–	43.7 µM (inactive)	–	> 100 µM (inactive)	> 100 µM (inactive)
CCCCCCCCCCCCCC1CCC(CC)N1 (stereo not given)	17.5 µM (inactive)	7.23 µM (inactive)	5.2 µM (inactive)	15.1 µM (inactive)	6.52	–	20.9 µM (inactive)	17.9 µM (inactive)	–	15.3 µM (inactive)	18.2 µM (inactive)	17.4 µM (inactive)	16.6 µM (inactive)	8.81 µM (inactive)	7.66 µM (inactive)	7.28 µM (inactive)	7.41 µM (inactive)	5.14 µM (inactive)	16.9 µM (inactive)	–
CCN1CCC(O)(c2ccccc2)C(C(=O)c2ccccc2)C1 (stereo not given)	17.1 µM (inactive)	16.7 µM (inactive)	15.7 µM (inactive)	22.4 µM (inactive)	26.9	–	> 100 µM (inactive)	17.3 µM (inactive)	–	> 54.1 µM (inactive)	2.62 µM (inactive)	18.2 µM (inactive)	18.2 µM (inactive)	> 31.6 µM (inactive)	17.9 µM (inactive)	> 89.3 µM (inactive)	> 100 µM (inactive)	19.5 µM (inactive)	> 100 µM (inactive)	–
